Patent US11026965B2, “Nitric oxide-releasing cyclodextrins as biodegradable antibacterial scaffolds and methods pertaining thereto” (The University of North Carolina at Chapel Hill, priority 2018, dated 2021)
Converted amounts (≈) assume the structure as drawn. Like-named read-outs stand apart in the source and are kept apart here.

Experiments:
[1] = NO-release properties of NO-releasing cyclodextrins at pH 5.4 and pH 7.4 (Table 5); format: physicochemical
Description: Additional studies were carried out to investigate NO-release properties from β-cyclodextrin under conditions consistent with healthy tissue (pH 7.4) and those of tumor microenvironments (pH 5.4). These studies also evaluated the role of NO-release properties on anticancer action using A549 lung cancer cells with two modifications to vary release kinetics (mono- and hepta-substitution to vary NO totals). This study also evaluated the efficacy of a combined therapeutic (a nitric oxide releasing CD with DOX) as compared to each therapeutic agent individually. […] Several different functionalized CDs were prepared as shown in Table 5 and using techniques as described elsewhere herein. […] All modifications (PA, DETA, and DETA7) except for PA7 have t1/2 under 10 min.

[2] = tested on: A549 human lung carcinoma cells; assay: Anticancer action against A549 cells, 24 h MTS assay; format: cell-based; conditions: A549, 24 h MTS; error = 95% confidence interval for IC50
Description: Anticancer potential was evaluated against A549 human lung carcinoma cells using an MTS assay. […] All cell work performed in RPMI media and materials corrected for pH using 0.1 M HCl. […]

planktonic P. aeruginosa = assay: Bactericidal assay against planktonic P. aeruginosa (4 h, static, MBC4h = 3-log reduction); format: cell-based, Pseudomonas aeruginosa; conditions: for MBC: Pseudomonas aeruginosa
Description: Nitric oxide may be an efficient antibacterial agent. The antibacterial activity of the NO-releasing CD derivatives was evaluated against Gram-negative P. aeruginosa, a model pathogen associated with serious medical infections (e.g., traumatic burns, cystic fibrosis). Pseudomonas aeruginosa is a Gram-negative pathogen. Bacterial viability assays were performed under static conditions. Minimum bactericidal concentrations over 4 hours exposure (MBC4h) were used to quantify their bactericidal activity, being required to eliminate bacteria viability by 3 logs (e.g., 99.9% killing). The total NO amount delivered by NO-releasing CD derivatives over this period was also calculated to quantitatively evaluate the required NO dose to achieve bactericidal activity.
The TSA bacterial stock of P. aeruginosa colony was cultured in 3 mL of TSB overnight (around 16 hours) at 37° C. A 1000 μL aliquot of the resulting suspension was added into 15 mL of fresh TSB and incubated at 37° C. for another 2 hours, to achieve a concentration of 10^8 colony forming units per mL (CFU/mL, confirmed by the OD600). The bacteria was collected by centrifugation, resuspended in sterile PBS, and diluted to 10^6 CFU/mL. The antibacterial efficacy of both non-NO-releasing and NO-releasing CD derivatives against P. aeruginosa was evaluated under static condition over 4 hours at 37° C. Blanks (untreated cells) were incubated in each experiment to ensure the bacteria remained viable at 10^6 CFU/mL over 4 hour assay. 100 μL aliquots of blank, control or NO-releasing CD derivatives treated bacteria suspensions were shifted, diluted 10-fold in sterile H2O and plated on TSA plates using an Eddy Jet spiral plater (IUL; Farmingdale, N.Y.), followed by incubation overnight at 37° C. Bacterial viability was evaluated via total colony count on the TSA plates by using a Flash & Go colony counter (IUL; Farmingdale, N.Y.). […] Of note, the limit of detection for this selected plate counting method is 2.5×10^3 CFU/mL.
Additional testing was done to determine the antibacterial efficacy and toxicity of DETA, DETA/NO (DETA functionalized with NO), and DETA/NO mixed with CD (at ratios of 1:1 or 1:2) as compared to CD-DETA or CD-DETA/NO (CD-DETA functionalized with NO). The same conditions as disclosed above for antibacterial testing and cytotoxicity was used.

L929 mouse fibroblasts = assay: In-vitro cytotoxicity, L929 mouse fibroblasts, MTS, 4 h exposure; format: cell-based
Description: L929 mouse fibroblasts were cultured in DMEM supplemented with 10% v/v fetal bovine serum (FBS) and 1 wt % penicillin/streptomycin, and incubated in 5% v/v CO2 under humidified conditions at 37° C. After reaching confluency (80%), the cells were trypsinized, seeded onto tissue-culture treated polystyrene 96-well plates at a density of 1×10^4 cells/mL, and incubated at 37° C. for 24 hours. The supernatant was then aspirated and replaced with 100 μL of fresh growth medium containing various concentrations of both unmodified control and NO-releasing CD derivatives to each well. After incubation at 37° C. for 4 hours, the supernatant was aspirated and 100 μL of a mixture of DMEM/MTS/PMS (105/20/1, v/v/v) was added to each well. The absorbance of the resulting colored solutions over 3 hours incubation was quantified by using a ThermoScientific Multiskan EX plate reader (Waltham, Mass.) at 490 nm. The mixture of DMEM/MTS/PMS and untreated cells were used as a blank and control, respectively. Cell viability was calculated according to the following formula: […]
Despite effective bactericidal capability, the applicability of new antibacterial agents is also determined by their toxicity to mammalian cells. With respect to therapeutic potential, toxicity to mammalian cells is an important factor in the development of any new antibacterial agent. The cytotoxicity of CD-NONOates was evaluated by exposing mouse fibroblast cells to various concentrations (0˜2000 μg/mL) of both control and NO-releasing CD derivatives over a 4 hour exposure. […] Both CD-PA7/NO and CD-MA7/NO were tolerable to the mouse fibroblasts even at 2000 μg/mL (63% and 73% cell viability for CD-PA7/NO and CD-MA7/NO, respectively). […] The behavior is in part related to the effective delivery of NO induced by the fast cellular uptake of positively charged macromolecular systems. This behavior was also ascribed to the large amounts of terminal primary amines groups.

[3] = 4 h exposure, 3-log reduction in viability

Compound: CCCNCC1OC2OC3C(CO)OC(OC4C(CO)OC(OC5C(CO)OC(OC6C(CO)OC(OC7C(CO)OC(OC8C(CO)OC(OC1C(O)C2O)C(O)C8O)C(O)C7O)C(O)C6O)C(O)C5O)C(O)C4O)C(O)C3O (stereo not drawn) [CD-PA]
- [NO]max ([1]; pH 5.4): 25100 ± 5700 ppb mg^−1
- [NO]t ([1]; pH 5.4): 0.56 ± 0.09 µmol/mg
- td ([1]; pH 5.4): 5.0 ± 0.8 h
- [NO]max ([1]; pH 7.4): 2100 ± 300 ppb mg^−1
- [NO]t ([1]; pH 7.4): 0.60 ± 0.07 µmol/mg
- td ([1]; pH 7.4): 17.0 ± 1.0 h
- NO dose [2]: 0.97 ± 0.16 µmol/mL

Compound: NCCN(CCN)/[N+]([O-])=N/O [DETA/NO]
- MBC4 h (planktonic P. aeruginosa; [3]): 1000 µg/mL

Compound: NCCNCCN [DETA, diethylenetriamine]
- bactericidal efficacy (in words) (planktonic P. aeruginosa; 4 h incubation): highly antimicrobial
- MBC (planktonic P. aeruginosa; 4 h exposure, 3-log reduction in viability, read-out: MBC4 h): 250 µg/mL (≈ 2420 µM)
- concentration at which toxic (L929 mouse fibroblasts; FIG. 21e): 4000 µg/mL

Compound: CC(CN1c2ccccc2Sc2ccccc21)N(C)C (stereo not drawn) [PM, promethazine]
- MBC (planktonic P. aeruginosa; concentration of PM, PM and CD derivative 1:1 molar, read-out: PM MBC4 h): 100 µg/mL (≈ 352 µM)
- MBC4h for PM (planktonic P. aeruginosa; concentration of PM): 100 µg/mL
- cytotoxicity at MBC4h concentration (in words) (L929 mouse fibroblasts): toxic to the vast majority of the mouse fibroblast cells

Compound: NCCNCCNCC1OC2OC3C(CO)OC(OC4C(CO)OC(OC5C(CO)OC(OC6C(CO)OC(OC7C(CO)OC(OC8C(CO)OC(OC1C(O)C2O)C(O)C8O)C(O)C7O)C(O)C6O)C(O)C5O)C(O)C4O)C(O)C3O (stereo not drawn) [CD-DETA]
- MBC4 h (planktonic P. aeruginosa; 4 h exposure): 8000 µg/mL
- MBC4 h (planktonic P. aeruginosa; [3]): 8000 µg/mL
- L929 viability (L929 mouse fibroblasts; up to 2 mg/mL): > 60%
- [NO]max ([1]; pH 5.4): 32000 ± 2500 ppb mg^−1
- [NO]t ([1]; pH 5.4): 0.74 ± 0.04 µmol/mg
- td ([1]; pH 5.4): 14.6 ± 0.8 h
- [NO]max ([1]; pH 7.4): 900 ± 100 ppb mg^−1
- [NO]t ([1]; pH 7.4): 0.68 ± 0.03 µmol/mg
- td ([1]; pH 7.4): 20.2 ± 0.6 h
- NO dose [2]: 1.07 ± 0.06 µmol/mL
